In patent publication US20070054838A1, “METHOD FOR IMPROVING DIAGNOSTIC QUALITY IN ECHOCARDIOGRAPHY” (priority 2005, published 2007):

Legend:
[1] = pharmacokinetic studies of oral cilobradine in cats; assay type: in vivo
Description: (§1) For example, the following dosages relevant for practicing the present invention with the bradycardic agent cilobradine in cats and dogs, have been determined in appropriate pharmacokinetic studies performed by the inventors. The single oral dose of cilobradine for potent heart rate reduction in cats is 0.2-0.4 mg/kg. The single oral dose of cilobradine for potent heart rate reduction in dogs is 0.3 mg/kg. […] Peak plasma levels are reached 0.5 hours after oral administration in cats and after 1 to 2 hours in dogs.

[2] = tested on: cats suffering from asymptomatic HCM; experiment: clinical field study, echocardiography in cats suffering from asymptomatic HCM; assay type: in vivo; conditions: during treatment, days 3 and 6; orally once daily for 5 days; four cats; at baseline not possible in 2 of 4 cats
Description: The use according to the invention of an If channel blocker, namely cilobradine, was investigated in a clinical field study with cats suffering from asymptomatic HCM.
Four cats diagnosed as suffering from asymptomatic HCM by means of motion mode […] (left ventricular wall thickness>6 mm), received cilobradine orally once daily for 5 consecutive days. Detailed clinical examinations were conducted at baseline and on days 1, 2, 3, 6 and 9. ECG measurements were performed at baseline and on days 3 and 6 of the study.
The composition used in the experiment was as follows. • Oral solution containing 2 mg/ml cilobradine • Active ingredient added to 0.9% NaCl solution
The results of the experiment, measuring the left ventricular E to A ratios obtained at baseline and under cilobradine treatment, are shown in enclosed FIG. 1.

[3] = pharmacokinetic studies of oral cilobradine in dogs; assay type: in vivo
Description: as §1

[4] = tested on: hyperpolarisation activated, cAMP-modulated cation current channels (HCN); conditions: cardiac conductive tissues; cited from earlier work

Row | SMILES | Time at which peak plasma levels are reached ([1]; after oral administration) [h] | Absolute bioavailability of oral formulations ([1]; oral) [%] | Single oral dose for potent heart rate reduction ([1]; oral) [mg/kg] | Calculation of left ventricular E/A ratios [2] | Absolute bioavailability of oral formulations [3] | Single oral dose for potent heart rate reduction [3] [mg/kg] | Block of HCN channels (If current) [4]
1 | COc1ccc(CCN2CCCC(CN3CCc4cc(OC)c(OC)cc4CC3=O)C2)cc1OC (centres unmarked) [cilobradine] | 0.5 | 22.6 | 0.2 to 0.4 | possible in all cats | 26-43% | 0.3 | selectively block
2 | COc1ccc(CCN(C)CCCN2CCc3cc(OC)c(OC)cc3CC2=O)cc1OC [zatebradine] | – | – | – | – | – | – | selectively block
